Data on one compound can be found in US20050085552A1, “Method for providing long-lasting pain relief through intrathecal administration of civamide” (Winston Laboratories, Inc., priority 2003, published 2005).

Molecules are shown by their SMILES. Bounds are passed on as bounds.

One data set concerns neurons. Put plainly: Neurotoxicity of civamide (applicant's discovery, no method given).
The format of data set [1] is physicochemical. From the text:
Civamide in amounts of 1 Φg, 5 Φg, 10 Φg, 50 Φg, and 100 Φg was dispersed in both 10 Φl and 20 Φl of each of the following: 100% dimethylsulfoxide (DMSO), normal saline (0.9% w/v sodium chloride) with 10% DMSO as suspending agent, normal saline with 0.5% DMSO and 10% cyclodextrin, 10% cyclodextrin and 10% DMSO as suspending agent, and normal saline with 10% cyclodextrin suspending agent, and normal saline with 25% DMSO. In each case, the saline was 0.9% USP.

Data set [2] concerns male Sprague-Dawley rats. Put plainly: Tail flick, hot plate (49° C., 52° C.) and paw pressure pain models after intrathecal administration. The data set is classed as in vivo, rat. The note with it: 1-100 Φg in 10 or 20 Φl, evaluated seven days later, paw pressure. As to the method:
Civamide and capsaicin were each separately administered intrathecally, in dosages of 1 Φg, 5 Φg, 10 Φg, 50 Φg, or 100 Φg in either 10 Φl or 20 Φl of 0.9% USP saline with 25% DMSO suspending agent, 0.9% USP saline and 10% cyclodextrin, and 0.9% USP saline with 0.5% DMSO and 10% cyclodextrin, to male Sprague-Dawley rats into whom intrathecal catheters had been inserted. Seven days later, tail flick, hot plate (49° C., 52° C.) and paw pressure pain models were evaluated.

For data set [3], the system named is male Sprague-Dawley rats. Kind of data set: Pain models after a single intrathecal dose: thermal escape, formalin and thermal injury evoked hyperalgesia, tactile allodynia in the Chung model of neuropathy. Type of data set: in vivo, rat. The note with it: single intrathecal dose of 10, 25 or 50 Φg/10 Φl saline with 20% or 25% DMSO. As to the method: Civamide 10 Φg/10 Φl saline, 25Φg/10 Φl saline, and 50 Φg/10 Φl saline and saline itself were administered intrathecally to male Sprague-Dawley rats. Each of the civamide compositions also included either 20% DMSO or 25% DMSO as a suspending agent. The saline used was 0.9% USP. Eighteen hours, 7 days, 14 days and 28 days after administration of a single intrathecal dose of either civamide or saline, models for various types of pain were evaluated. These included models for acute nociceptive processing (i.e. thermal escape), post tissue injury hyperpathic states (i.e. formalin and thermal injury evoked hyperalgesia) and nerve injury induced hyperpathia (i.e. tactile allodynia in the Chung model of neuropathy).

The conditions of data set [4]: compositions containing civamide, per U.S. Pat. No. 5,063,060; cited from earlier work.

Turning to `COc1cc(CNC(=O)CCCC/C=C\C(C)C)ccc1O` [Civamide, cis-8-methyl-N-vanillyl-6-nonenamide], in the data set with neurons, the neurotoxicity entry is listed as “no significant neurotoxicity”. Besides, the “physical and chemical stability of compositions” value in data set [1] is “physically and chemically stable”. For the same compound, in the data set on male Sprague-Dawley rats [2], the “effectiveness versus intrathecally administered capsaicin in pain models” value is reported as “more effective than intrathecally administered capsaicin” and the “effectiveness versus saline in pain models” value is reported as “significantly more effective than saline”. For the same compound, in the data set with male Sprague-Dawley rats [3], the “duration of the effects of a single dose” value is “at least 28 days” and the “time after administration by which effective pain amelioration was produced” value is ≤ 18 h. Besides, in data set [4], the “efficacy compared with compositions containing capsaicin” value is given as “comparable in efficacy” and the “local adverse effects compared with capsaicin” value was “significantly less local adverse effects”.
